The source of these data is US4367339A, “Substituted N-nitroaniline compounds and inorganic and organic salts thereof useful for enhancing auxiliary branching, canopy flowering and crop yield of plant and as lodging inhibitors therefor” (priority 1980, dated 1983).

The subject of assay [1] is soybeans (Glycine max) var. Adelphia. The experiment in a line: Increasing flowering of plants (soybeans). The format is in vivo, soybean (Glycine max). As to conditions: three weeks after spraying. As to the method:
In the following tests seedling soybean plants growing in plastic cups are sprayed with aqueous-acetone solutions or dispersions of test compounds when they have reached the 2nd to 3rd trifoliate stage. Test solutions or dispersions are prepared with 0.25 v/v Colloidal BIOFILM® surfactant and sufficient test compound to provide the plants with 0.5, 0.25, 0.125 or 0.06 kg/ha of said compound when the test solutions are sprayed on said plants from an overhead sprayer delivering 747 l/ha of solution.
After spraying the plants are placed on greenhouse benches and watered and fertilized. Three weeks after spraying the plants are examined and the amount of flowering determined for all plants. Data obtained are reported in the table below as percent increase in flowering over untreated controls.
From the data reported in Table VIII below it can be seen that the compounds of the present invention applied at rates of from 0.06 to 0.25 kg/ha enhance flowering of treated plant more than 10% over untreated controls. This response is particularly desirable for treatment of flowering varieties of ornamental plants as well as agronomic crops.

Assay [2] has as its system soybean (Glycine max) Adelphia. The experiment in a line: Dwarfing and stem stiffening of soybeans (plant height, greenhouse, foliar spray). As to conditions: three weeks after spraying. The format is in vivo. As to the method:
(§1) In the following tests, test compounds are dissolved or dispersed in acetone-water (1:1) mixtures at the final concentration corresponding to the kg/ha rates indicated in the table below. The solution also contains 0.25% v/v colloidal BIOFILM® (a product of Colloidal Products Corp.) which is a mixture of alkyl aryl polyethoxyethanol, free and combined fatty acids, glycol ethers, dialkylbenzene carboxylate and 2-propanol.
(§2) The plant species used in these tests are barley (Hordeum vulgare), (Mexico) and soybean (Glycine max)Adelphia.
(§3) The solution or dispersion of the compound under test is sprayed at a rate of 747 l/ha with a moving nozzle along an overhead stationary track. The spray nozzle moves at a constant speed over the plants.
(§4) The plants are grown in plastic pots, and are well established at the time of treatment. The seedlings of barley are 10 to 20 cm in height, while the seedlings of soybeans are at the second to third trifoliate stage. Plants are watered prior to treatment and then sprayed to provide the kg/ha rate of test compound desired. After spraying the plants are placed on greenhouse benches and watered and fertilized in accordance with normal greenhouse procedures.
(§5) Three weeks after spraying the plants are measured and harvested. Harvesting is done at the boot stage. All treatments are replicated six times and comparisons are made against untreated controls. Data obtained are reported in Table VI below as percent reduction in plant height over untreated controls.

Assay [3] deals with soybeans (Glycine max) Adelphia variety. The assay can be described thus: Increasing axillary branching and improving the canopy of broad leaf plants (soybeans). The class given is in vivo, soybean (Glycine max). Particulars: three weeks after treatment. The source says: In these tests seedling soybean plants approximately three weeks old, and grown in plastic pots to the 2nd to 3rd trifoliate stage, are sprayed with solutions or dispersions of test compound prepared as described in Example 7 above. The same spraying apparatus, described in Example 7 above, is used and after spraying the plants are placed on greenhouse benches and watered and fertilized. Three weeks after treatment the plants are examined to determine what effect the application of test compound has had on the axillary branching and canopy development of the treated plants.
Increased axillary branching and improved canopy are biological responses which are highly advantageous in the growing of ornamental plants. These responses also have advantage in many crops since increased branching may result in the greater production of fruit, while improved canopy tends to shade and suppress the growth of undesirable weeds that compete with the crops for sunlight, water and plant nutrients. Data obtained are reported in table VII below where axillary branching and canopy are reported as percent increase over untreated controls.

Another assay has as its system barley (Hordeum vulgare). The assay can be described thus: Dwarfing of barley (plant height, greenhouse, foliar spray). The format is in vivo. Particulars: three weeks after spraying. As for the experimental part:
as §1, §2, §3, §4, §5

Setting [4] is: rate 0.125 kg/ha, listed as Methylamine salt with 2,4,6-tribromo-N--aci-nitroaniline.

Structures can show the parent of a compound that is named as a salt.

Consider `O=[N+]([O-])Nc1c(Br)cc(Br)cc1Br` [1,1-Dimethylpiperidinium salt with 2,4,6-tribromo-N--aci-nit] [1,1-Dimethylpiperidinium salt with 2,4,6-tribromo-N--aci-nitroaniline], for which the “% Increase in Flowering over untreated controls” value (“% Increase in Flowering” below) in assay [1] (rate 0.125 kg/ha) is reported as “normal”. In addition, the “% Reduction in Plant Height over untreated controls” value (from here on “% Reduction in Plant Height”) in assay [2] (rate 0.125 kg/ha) is above 25%; in assay [2] (rate 0.25 kg/ha) it was above 35%; in assay [2] (rate 0.5 kg/ha), above 50%. Besides, the “% Increase in Plant Canopy over untreated controls” value (“% Increase in Plant Canopy” for short) in assay [3] (rate 0.125 kg/ha) is reported as “normal”. For the same molecule, the “% Increase in axillary branching over untreated controls” value (“% Increase in axillary branching” for short) in assay [3] (rate 0.125 kg/ha) and in assay [3] (rate 0.25 kg/ha) was “normal” each time.

As for `Cc1cc(C)c([N-][N+](=O)[O-])c(C)c1.Cn1c(-c2ccccc2)cc(-c2ccccc2)[n+]1C` [1,2-Dimethyl-3,5-diphenylpyrazolium salt with 2,4,6-Trimethyl-N--aci-nitroaniline], the “% Reduction in Plant Height” value in assay [2] (rate 0.125 kg/ha) was “slight increase”; in assay [2] (rate 0.25 kg/ha), above 5%; in assay [2] (rate 0.5 kg/ha) it was above 10%. Moreover, the “% Increase in Plant Canopy” value in assay [3] (rate 0.125 kg/ha) is listed as “normal”. Moreover, in assay [3] (rate 0.125 kg/ha), the “% Increase in axillary branching” value is “normal”.

As to `Cn1c(-c2ccccc2)cc(-c2ccccc2)[n+]1C.O=[N+]([O-])[N-]c1c(Br)cc(Br)cc1I` [1,2-Dimethyl-3,5-diphenylpyrazolium salt with 2,4-dibromo-6-iodo-N--aci-nitroaniline], the “% Increase in Flowering” value in assay [1] (rate 0.5 kg/ha) is “normal”. Also, the “% Reduction in Plant Height” value is recorded as above 10% in assay [2] (rate 0.125 kg/ha), above 15% in assay [2] (rate 0.25 kg/ha) and above 25% in assay [2] (rate 0.5 kg/ha).

As for `Cn1c(-c2ccccc2)cc(-c2ccccc2)[n+]1C.O=[N+]([O-])[N-]c1c(Br)cc(Cl)cc1Br` [1,2-Dimethyl-3,5-diphenylpyrazolium salt with 2,6-dibromo-4-chloro-N--aci-nitroaniline], the “% Reduction in Plant Height” value was above 25% in assay [2] (rate 0.125 kg/ha), above 30% in assay [2] (rate 0.25 kg/ha) and above 40% in assay [2] (rate 0.5 kg/ha). The “% Increase in Plant Canopy” value in assay [3] (rate 0.125 kg/ha) is reported as “normal”.

For the molecule `O=[N+]([O-])Nc1c(Br)cc(Br)cc1Br` [2,4,6-Tribromo-N--nitroaniline tetrabutyl, ammonium salt], the “% Reduction in Plant Height” value in the assay with barley (Hordeum vulgare) (rate 0.17 kg/ha, ammonium salt) was 10.5%; in the assay on barley (Hordeum vulgare) (rate 1.5 kg/ha, ammonium salt), 15.8%.

As to `O=[N+]([O-])Nc1c(Br)cc(Br)cc1Br` [2,4,6-Tribromo-N--nitroaniline with ammonia (1:1)], the “% Reduction in Plant Height” value in assay [2] (rate 0.5 kg/ha) is reported as above 60%; in assay [2] (rate 2.0 kg/ha), above 60%; in the assay with barley (Hordeum vulgare) (rate 0.50 kg/ha), 16.3%; in the assay on barley (Hordeum vulgare) (rate 1.5 kg/ha), 15.3%. In assay [3] (rate 0.5 kg/ha), the “% Increase in Plant Canopy” value is “Injury”.

As for `O=[N+]([O-])Nc1c(Br)cc(Br)cc1Br` [2,4,6-Tribromo-N--nitroaniline with dibenzylamine], the “% Increase in Flowering” value in assay [1] (rate 0.125 kg/ha) is recorded as “normal”. In assay [3] (rate 0.125 kg/ha), the “% Increase in Plant Canopy” value is on record as “normal” and the “% Increase in axillary branching” value is reported as “normal”. The “% Increase in axillary branching” value in assay [3] (rate 0.25 kg/ha) was “normal”.

`O=[N+]([O-])Nc1c(Br)cc(Br)cc1Br` [2,4,6-Tribromo-N--nitroaniline with dodecylamine]: the “% Increase in Flowering” value in assay [1] (rate 0.125 kg/ha) is listed as “normal”. For the same molecule, in assay [3] (rate 0.125 kg/ha), the “% Increase in Plant Canopy” value was “normal” and the “% Increase in axillary branching” value is on record as “normal”.

Turning to `O=[N+]([O-])Nc1c(Br)cc(Br)cc1Br` [2,4,6-Tribromo-N--nitroaniline with methylamine (1:1)], the “% Reduction in Plant Height” value in assay [2] (rate 0.5 kg/ha) is on record as above 60%; in assay [2] (rate 2.0 kg/ha), above 60%; with barley (Hordeum vulgare) (rate 0.11 kg/ha), 10%; in the assay with barley (Hordeum vulgare) (rate 0.56 kg/ha), above 50%; with barley (Hordeum vulgare) (rate 2.24 kg/ha), above 50%. Besides, the “% Increase in Plant Canopy” value in assay [3] (setting [4]) is “normal”. Also, the “% Increase in axillary branching” value was “normal” in assay [3] (setting [4]); “normal” in assay [3] (rate 0.25 kg/ha, listed as Methylamine salt with 2,4,6-tribromo-N--aci-nitroaniline); “normal” in assay [3] (rate 0.5 kg/ha, listed as Methylamine salt with 2,4,6-tribromo-N--aci-nitroaniline).

On to `O=[N+]([O-])Nc1c(Br)cc(Br)cc1Br` [2,4,6-Tribromo-N--nitroaniline with octylamine (1:1)], for which the “% Increase in axillary branching” value in assay [3] (rate 0.125 kg/ha, octylamine salt) is reported as “normal”. Further, in assay [3] (rate 0.5 kg/ha, octylamine salt), the “% Increase in Plant Canopy” value is listed as “slight reduction”. Besides, the “% Reduction in Plant Height” value came out at 10.5% in the assay with barley (Hordeum vulgare) (rate 0.17 kg/ha), 13.0% in the assay with barley (Hordeum vulgare) (rate 0.50 kg/ha) and 11.1% with barley (Hordeum vulgare) (rate 1.5 kg/ha).

For `O=[N+]([O-])Nc1c(Br)cc(Br)cc1Br` [2,4,6-Tribromo-N--nitroaniline, magnesium salt], the “% Increase in Plant Canopy” value is reported as “moderate reduction” in assay [3] (rate 0.25 kg/ha, listed as 2,4,6-Tribromo-N--aci-nitroaniline, magnesium salt (2:1)) and “moderate reduction” in assay [3] (rate 0.5 kg/ha, listed as 2,4,6-Tribromo-N--aci-nitroaniline, magnesium salt (2:1)).

Take `O=[N+]([O-])Nc1c(Br)cc(Br)cc1Br` [2,4,6-Tribromo-N--nitroaniline, triethylamine (1:1)salt]: the “% Increase in axillary branching” value in assay [3] (rate 0.125 kg/ha) is recorded as “normal”. For the same molecule, the “% Increase in Plant Canopy” value in assay [3] (rate 0.25 kg/ha) and in assay [3] (rate 0.5 kg/ha) was “slight reduction” throughout.

In the case of `Cn1c(-c2ccccc2)cc(C2CCCCC2)[n+]1C.O=[N+]([O-])[N-]c1c(Br)cc(Br)cc1Br` [3-Cyclohexyl-1,2-dimethyl-5-phenylpyrazolium salt with 2,4,6-tribromo-N--aci-nitroaniline], the “% Reduction in Plant Height” value in assay [2] (rate 0.125 kg/ha) is given as above 10%; in assay [2] (rate 0.25 kg/ha) it was above 20%; in assay [2] (rate 0.5 kg/ha) it was above 40%. Further, the “% Increase in Plant Canopy” value in assay [3] (rate 0.5 kg/ha) is reported as “slight reduction”.

With `O=[N+]([O-])Nc1c(Br)cc(Br)cc1Br` [Benzyltriethylammonium salt with 2,4,6-tribromo-N--aci-nitro] [Benzyltriethylammonium salt with 2,4,6-tribromo-N--aci-nitroaniline], the “% Reduction in Plant Height” value in assay [2] (rate 0.125 kg/ha) is recorded as above 25%; in assay [2] (rate 0.25 kg/ha) it was above 35%; in assay [2] (rate 0.5 kg/ha), above 50%. Moreover, in assay [3] (rate 0.125 kg/ha), the “% Increase in Plant Canopy” value is listed as “normal”. Besides, the “% Increase in axillary branching” value in assay [3] (rate 0.125 kg/ha) and in assay [3] (rate 0.25 kg/ha) was “normal” each time.

For `CCCC[P+](CCCC)(CCCC)Cc1ccc(Cl)cc1Cl.O=[N+]([O-])[N-]c1c(Br)cc(Br)cc1Br` [Tributyl(2,4-dichlorobenzyl) phosphonium salt with 2,4,6-tribromo-N--aci-nitroaniline], the results for the “% Increase in Plant Canopy” value in assay [3] (rate 0.125 kg/ha) and in assay [3] (rate 0.5 kg/ha) were “normal” and “moderate reduction”, respectively. Also, the “% Increase in axillary branching” value in assay [3] (rate 0.125 kg/ha) is listed as “normal”.
